In PubChem BioAssay AID1963964 (Molecular Pharmacology Branch, DTP, NCI, 2024):
Values belong to the compound of their own block, whether it stands above or below them.

System: 997726-040-R-J2-PDC tumor spheroids, viability
Experiment: Anticancer human tumor 997726-040-R-J2-PDC patient-derived squamous cell lung carcinoma cell line growth inhibition [PI3K]
Details: spheroids with HUVEC and MSC; for IC50: curve of first compound; for viability, T/C: stronger effect = lower value
In short: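 High-throughput combination screen: PI3K inhibitors crossed with targeted small molecules on complex spheroids of tumor cells, HUVEC and MSCs at 37 degrees C, 5% CO2. Top concentration was at or near clinical Cmax (otherwise 10 microM), with half-log decrements.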

[1] = second compound 0.00316 µM, first compound 0.0316 µM
[2] = second compound 0.00316 µM, first compound 0.1 µM
[3] = second compound 0.00316 µM, first compound 0.316 µM
[4] = second compound 0.00316 µM, first compound 1 µM
[5] = second compound 0.00316 µM, first compound 3.16 µM
[6] = second compound 0.00316 µM, first compound 10 µM
[7] = second compound 0.01 µM, first compound 0.0316 µM
[8] = second compound 0.01 µM, first compound 0.1 µM
[9] = second compound 0.01 µM, first compound 0.316 µM
[10] = second compound 0.01 µM, first compound 1 µM
[11] = second compound 0.01 µM, first compound 3.16 µM
[12] = second compound 0.01 µM, first compound 10 µM
[13] = second compound 0.0316 µM, first compound 0.0316 µM
[14] = second compound 0.0316 µM, first compound 0.1 µM
[15] = second compound 0.0316 µM, first compound 0.316 µM
[16] = second compound 0.0316 µM, first compound 1 µM
[17] = second compound 0.0316 µM, first compound 3.16 µM
[18] = second compound 0.0316 µM, first compound 10 µM
[19] = second compound 0.1 µM, first compound 0.0316 µM
[20] = second compound 0.1 µM, first compound 0.1 µM
[21] = second compound 0.1 µM, first compound 0.316 µM
[22] = second compound 0.1 µM, first compound 1 µM
[23] = second compound 0.1 µM, first compound 3.16 µM
[24] = second compound 0.1 µM, first compound 10 µM
[25] = second compound 0.316 µM, first compound 0.0316 µM
[26] = second compound 0.316 µM, first compound 0.1 µM
[27] = second compound 0.316 µM, first compound 0.316 µM
[28] = second compound 0.316 µM, first compound 1 µM
[29] = second compound 0.316 µM, first compound 3.16 µM
[30] = second compound 0.316 µM, first compound 10 µM
[31] = second compound 1 µM, first compound 0.0316 µM
[32] = second compound 1 µM, first compound 0.1 µM
[33] = second compound 1 µM, first compound 0.316 µM
[34] = second compound 1 µM, first compound 1 µM
[35] = second compound 1 µM, first compound 3.16 µM
[36] = second compound 1 µM, first compound 10 µM
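Also: spheroids exposed to compounds for seven days before readout.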

IC50 (second compound 0.00316 µM): 190 nM
IC50 (second compound 0.01 µM): 79.8 nM
IC50 (second compound 0.0316 µM): < 31.6 nM
IC50 (second compound 0.1 µM): < 31.6 nM
IC50 (second compound 0.316 µM): < 31.6 nM
IC50 (second compound 1 µM): < 31.6 nM
Compound: CC(C)NCC(C(=O)N1CCN(c2ncnc3c2C(C)CC3O)CC1)c1ccc(Cl)cc1 (stereo not drawn) + COc1c(OCCCN2CCOCC2)ccc2c3n(c(=NC(=O)c4cnc(N)nc4)nc12)CCN3
viability, T/C [1]: 67.1%
viability, T/C [2]: 55.3%
viability, T/C [3]: 46%
viability, T/C [4]: 29.1%
viability, T/C [5]: 15.7%
viability, T/C [6]: 9.1%
viability, T/C [7]: 51.6%
viability, T/C [8]: 49.6%
viability, T/C [9]: 42.8%
viability, T/C [10]: 27%
viability, T/C [11]: 16.8%
viability, T/C [12]: 9.46%
viability, T/C [13]: 36.4%
viability, T/C [14]: 33.1%
viability, T/C [15]: 27%
viability, T/C [16]: 22.3%
viability, T/C [17]: 13.3%
viability, T/C [18]: 7.3%
viability, T/C [19]: 19.4%
viability, T/C [20]: 17.6%
viability, T/C [21]: 18.9%
viability, T/C [22]: 14.4%
viability, T/C [23]: 8.93%
viability, T/C [24]: 5.81%
viability, T/C [25]: 6.3%
viability, T/C [26]: 5.44%
viability, T/C [27]: 4.27%
viability, T/C [28]: 3.76%
viability, T/C [29]: 3.51%
viability, T/C [30]: 2.65%
viability, T/C [31]: 1.14%
viability, T/C [32]: 1.32%
viability, T/C [33]: 1.04%
viability, T/C [34]: 1.33%
viability, T/C [35]: 2.38%
viability, T/C [36]: 1.22%

IC50 (second compound 0.00316 µM): > 1000 nM
IC50 (second compound 0.01 µM): 10.4 nM
IC50 (second compound 0.0316 µM): < 3.16 nM
IC50 (second compound 0.1 µM): < 3.16 nM
IC50 (second compound 0.316 µM): < 3.16 nM
IC50 (second compound 1 µM): < 3.16 nM
Compound: CCN1CCN(Cc2ccc(Nc3ncc(F)c(-c4cc(F)c5nc(C)n(C(C)C)c5c4)n3)nc2)CC1 + COc1c(OCCCN2CCOCC2)ccc2c3n(c(=NC(=O)c4cnc(N)nc4)nc12)CCN3
viability, T/C (second compound 0.00316 µM, first compound 0.00316 µM): 70%
viability, T/C (second compound 0.00316 µM, first compound 0.01 µM): 68.4%
viability, T/C [1]: 62.2%
viability, T/C [2]: 54.2%
viability, T/C [3]: 55.1%
viability, T/C [4]: 65.3%
viability, T/C (second compound 0.01 µM, first compound 0.00316 µM): 61%
viability, T/C (second compound 0.01 µM, first compound 0.01 µM): 50.4%
viability, T/C [7]: 49.1%
viability, T/C [8]: 41.3%
viability, T/C [9]: 41.5%
viability, T/C [10]: 60.8%
viability, T/C (second compound 0.0316 µM, first compound 0.00316 µM): 31.4%
viability, T/C (second compound 0.0316 µM, first compound 0.01 µM): 34.8%
viability, T/C [13]: 29.5%
viability, T/C [14]: 28.1%
viability, T/C [15]: 31%
viability, T/C [16]: 33.7%
viability, T/C (second compound 0.1 µM, first compound 0.00316 µM): 22%
viability, T/C (second compound 0.1 µM, first compound 0.01 µM): 20.4%
viability, T/C [19]: 17.7%
viability, T/C [20]: 16.6%
viability, T/C [21]: 16.9%
viability, T/C [22]: 19.3%
viability, T/C (second compound 0.316 µM, first compound 0.00316 µM): 5.44%
viability, T/C (second compound 0.316 µM, first compound 0.01 µM): 4.49%
viability, T/C [25]: 4.5%
viability, T/C [26]: 6.65%
viability, T/C [27]: 6.95%
viability, T/C [28]: 7.72%
viability, T/C (second compound 1 µM, first compound 0.00316 µM): 1.02%
viability, T/C (second compound 1 µM, first compound 0.01 µM): 1.63%
viability, T/C [31]: 1.24%
viability, T/C [32]: 1.32%
viability, T/C [33]: 2.23%
viability, T/C [34]: 3.91%

IC50 (second compound 0.00316 µM): 53.2 nM
IC50 (second compound 0.01 µM): < 31.6 nM
IC50 (second compound 0.0316 µM): < 31.6 nM
IC50 (second compound 0.1 µM): < 31.6 nM
IC50 (second compound 0.316 µM): < 31.6 nM
IC50 (second compound 1 µM): < 31.6 nM
Compound: Cn1ncc(Cl)c1-c1cc(C(=O)NC(CN)Cc2cccc(F)c2)sc1Cl (stereo not drawn) + COc1c(OCCCN2CCOCC2)ccc2c3n(c(=NC(=O)c4cnc(N)nc4)nc12)CCN3
viability, T/C [1]: 55.2%
viability, T/C [2]: 43.9%
viability, T/C [3]: 25.2%
viability, T/C [4]: 15.7%
viability, T/C [5]: 9.84%
viability, T/C [6]: 10.3%
viability, T/C [7]: 46.3%
viability, T/C [8]: 39%
viability, T/C [9]: 21.6%
viability, T/C [10]: 12.4%
viability, T/C [11]: 7.68%
viability, T/C [12]: 10.1%
viability, T/C [13]: 30.6%
viability, T/C [14]: 28%
viability, T/C [15]: 20%
viability, T/C [16]: 10.6%
viability, T/C [17]: 8.98%
viability, T/C [18]: 7.48%
viability, T/C [19]: 21.4%
viability, T/C [20]: 19.4%
viability, T/C [21]: 12.5%
viability, T/C [22]: 8.76%
viability, T/C [23]: 8.67%
viability, T/C [24]: 5.52%
viability, T/C [25]: 4.97%
viability, T/C [26]: 5.24%
viability, T/C [27]: 3.32%
viability, T/C [28]: 4.64%
viability, T/C [29]: 4.59%
viability, T/C [30]: 3.13%
viability, T/C [31]: 1.15%
viability, T/C [32]: 1.24%
viability, T/C [33]: 1.45%
viability, T/C [34]: 1.8%
viability, T/C [35]: 2.57%
viability, T/C [36]: 0.94%

IC50 (second compound 0.00316 µM): 299 nM
IC50 (second compound 0.01 µM): 40.8 nM
IC50 (second compound 0.0316 µM): < 31.6 nM
IC50 (second compound 0.1 µM): < 31.6 nM
IC50 (second compound 0.316 µM): < 31.6 nM
IC50 (second compound 1 µM): < 31.6 nM
Compound: Cn1nccc1Nc1nccc(-c2ccn(C(CO)c3ccc(Cl)c(F)c3)c(=O)c2)n1 (stereo not drawn) + COc1c(OCCCN2CCOCC2)ccc2c3n(c(=NC(=O)c4cnc(N)nc4)nc12)CCN3
viability, T/C [1]: 70.4%
viability, T/C [2]: 66.3%
viability, T/C [3]: 49.1%
viability, T/C [4]: 51.9%
viability, T/C [5]: 44.8%
viability, T/C [6]: 49.8%
viability, T/C [7]: 52%
viability, T/C [8]: 47.7%
viability, T/C [9]: 40.3%
viability, T/C [10]: 43.9%
viability, T/C [11]: 42.1%
viability, T/C [12]: 34.2%
viability, T/C [13]: 37.3%
viability, T/C [14]: 35.5%
viability, T/C [15]: 26.8%
viability, T/C [16]: 27.5%
viability, T/C [17]: 27.3%
viability, T/C [18]: 25.2%
viability, T/C [19]: 20.4%
viability, T/C [20]: 20.2%
viability, T/C [21]: 18.3%
viability, T/C [22]: 19%
viability, T/C [23]: 20%
viability, T/C [24]: 11.8%
viability, T/C [25]: 5.76%
viability, T/C [26]: 4.79%
viability, T/C [27]: 5.29%
viability, T/C [28]: 3.62%
viability, T/C [29]: 3.85%
viability, T/C [30]: 0.65%
viability, T/C [31]: 0.97%
viability, T/C [32]: 1.38%
viability, T/C [33]: 1.3%
viability, T/C [34]: 0.75%
viability, T/C [35]: 0.59%
viability, T/C [36]: 0.31%
